The values that follow come from ChEMBL document CHEMBL1143240, “Inhibiting dihydrodipicolinate synthase across species: towards specificity for pathogens?” (Bioorg Med Chem Lett, 2008).

In experiment [1] the target is T1, Dihydrodipicolinate synthase (Bacillus anthracis) (UniProt A0A6L7H340).
T1 sequence (whole entry): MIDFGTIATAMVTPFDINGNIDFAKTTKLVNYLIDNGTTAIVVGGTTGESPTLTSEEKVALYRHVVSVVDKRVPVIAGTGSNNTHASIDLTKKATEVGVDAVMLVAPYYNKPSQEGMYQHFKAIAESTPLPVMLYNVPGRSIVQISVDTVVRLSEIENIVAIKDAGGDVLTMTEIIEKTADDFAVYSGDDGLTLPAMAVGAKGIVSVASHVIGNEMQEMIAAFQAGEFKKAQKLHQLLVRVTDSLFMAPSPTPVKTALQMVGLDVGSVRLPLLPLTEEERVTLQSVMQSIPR
Nature of the experiment: Inhibition of Bacillus anthracis DHDPS at 20 mM.

Experiment [2] has as its system Escherichia coli. Nature of the experiment: Inhibition of Escherichia coli DHDPS at 20 mM.
Experiment [3] concerns Escherichia coli. Kind of experiment: Antibacterial activity against Escherichia coli at 20 uM relative to control. The experiment is classed as functional, organism-based.
Experiment [4] relates to Escherichia coli. Nature of the experiment: Inhibition of Escherichia coli NAL at 20 mM.
The target in experiment [5] is 4-hydroxy-tetrahydrodipicolinate synthase (Mycobacterium tuberculosis) (UniProt P9WP25). Kind of experiment: Inhibition of Mycobacterium tuberculosis DHDPS at 20 mM.
In experiment [6] the test system is Staphylococcus aureus. Nature of the experiment: Inhibition of methicillin-resistant Staphylococcus aureus DHDPS at 20 mM.
A short description of experiment [7]: Inhibition of Escherichia coli DHDPS.

Activity calls are given as the source filed them. The rule behind the calls is not given here.

For the compound `COC(=O)[C@@H]1CS(=O)(=O)C[C@H](C(=O)OC)N1`, the inhibition was determined as 19% in experiment [1]; 0% in experiment [2]; 3% in experiment [4]; 6% in experiment [5]; 0% in experiment [6]. Besides, the result in experiment [3] was inactive.
With `O=C(O)[C@@H]1CCC[C@H](C(=O)O)N1`, the inhibition in experiment [1] was found to be 73%; in experiment [2], 49%; in experiment [4] it was 21%; in experiment [5], 43%; in experiment [6], 51%.
Consider `COC(=O)[C@@H]1CS(=O)(=O)C[C@@H](C(=O)OC)N1`, for which the inhibition in experiment [1] was determined as 6%; in experiment [2] it was 14%; in experiment [4] it was 0%; in experiment [5] it was 7%; in experiment [6], 0%.
In turn, `N[C@@H](CC=O)C(=O)O` registered a Ki in experiment [7] of 14 mM.
Regarding `COC(=O)[C@@H]1C[S+]([O-])C[C@@H](C(=O)OC)N1` (some centres undefined), the inhibition in experiment [1] came out at 7%; in experiment [2], 0%; in experiment [4], 7%; in experiment [5], 0%; in experiment [6], 7%.
Turning to `O=C(O)c1cccc(C(=O)O)n1`, the inhibition in experiment [1] was found to be 80%; in experiment [2], 76%; in experiment [4], 1%; in experiment [5] it was 75%; in experiment [6], 67%.
For `COC(=O)[C@@H]1C[S@+]([O-])C[C@H](C(=O)OC)N1`, in that order: 22%, 20%, 38%, 14% and 12%.
Taken in the same sequence, the figures for `COC(=O)[C@@H]1CSC[C@@H](C(=O)OC)N1` were 19%, 12%, 0%, 0% and 0%.
Taken in the same sequence, the figures for `COC(=O)[C@@H]1CSC[C@H](C(=O)OC)N1` were 23%, 35%, 1%, 0% and 0%.
For `COC(=O)c1cc(=O)cc(C(=O)OC)[nH]1`, the inhibition in experiment [1] stood at 0%; in experiment [2], 85%; in experiment [4] it was 64%; in experiment [5] it was 84%; in experiment [6], 88%.
As for `COC(=O)[C@@H]1C[S@@+]([O-])C[C@H](C(=O)OC)N1`, the inhibition in experiment [1] was 8%; in experiment [2] it was 8%; in experiment [4], 0%; in experiment [5], 1%; in experiment [6], 10%.
For the compound `CC(=O)C(=O)O` [PYRUVATE], the affinity in experiment [7] corresponds to a Ki of 7 mM.
In the case of `O=C(O)c1cc(=O)cc(C(=O)O)[nH]1`, the inhibition was 0% in experiment [1]; 74% in experiment [2]; 27% in experiment [4]; 73% in experiment [5]; 83% in experiment [6]. The outcome in experiment [3] was Active.
As to `COC(=O)[C@@H]1CCC[C@H](C(=O)OC)N1`, the inhibition in experiment [1] was 99%; in experiment [2], 92%; in experiment [4] it was 18%; in experiment [5] it was 24%; in experiment [6] it was 58%.
Taken in the same sequence, the figures for `COC(=O)c1cccc(C(=O)OC)n1` were 13%, 5%, 0%, 0% and 0%.
